The text below walks through data of publication PMC7114325 (Antiviral Research, 2008).

Where only a bound is given, the exact number is not on record here.

Data set [1] in a line: in vitro. Conditions: hamster.
Data set [2] can be described thus: in vitro. Conditions: African green monkey.
Data set [3] deals with West Nile virus. Conditions: cited from earlier work.
Data set [4] concerns BHK-21 cells.
For data set [5], the system named is Vero E6 cells.

As to `CC(C)=CCC[C@](C)(O)C1CC[C@@H]2C1CC[C@H]1C2(C)CC[C@H]2C(C)(C)C(=O)CCC12C` (stereo partly drawn) [Compound C01225, (5R,9S,14R)-dodecahydro-17-((S)-2-hydroxy-6-methylhept-5-en-2-yl)-4,4,8,10-tetramethyl-2Hcyclopenta[a]phenanthren-3(4H,9H,14H)-one], the CC50 in data set [1] and in data set [2] was above 100 µM each time.
Take `NC(=O)CCS(=O)(=O)c1ccc(Cl)cc1` [Compound C03455, 3-(4-Chlorobenzenesulfonyl)-propionamide]: the “activity against West Nile virus” value in data set [3] is given as “active”. Further, the values for the CC50 in data set [1] and in data set [2] were 87 ± 5.23 µM and above 100 µM, respectively.
Take `COc1cc(/C=C(/NC(=O)c2ccccc2)C(=O)NNC(=O)CN)ccc1O` [Compound C11472, (E)-N′-(2-aminoacetyl)-2-(benzamido)-3-(4-hydroxy-3-methoxyphenyl)acrylohydrazide]: the CC50 is above 100 µM in data set [1] and 82 ± 4.33 µM in data set [2].
As to `CC1=C(C(=O)OCCc2ccccc2)C(c2ccccc2[N+](=O)[O-])C2=C(CCCC2=O)N1` (stereo not shown) [Compound C12344, 3-Quinolinecarboxylic acid, 1,4,5,6,7,8-hexahydro-2-methyl-4-(2-nitrophenyl)-5-oxo-, 2-phenylethyl ester], the CC50 in data set [1] and in data set [2] was above 100 µM each time.
For `CCOC(=O)c1cnc2ccc(OCC)cc2c1NCc1ccccc1` [Compound C26505, 4-Benzylamino-6-ethoxy-quinoline-3-carboxylic acid ethylester], in data set [3], the “activity against West Nile virus” value is recorded as “active”. Besides, the CC50 is 78 ± 4.87 µM in data set [1] and above 100 µM in data set [2].
On to `N#Cc1c(N)nc(Sc2ccc(Cl)cc2)c(C#N)c1-c1cccs1` [Compound C47655, 2-Amino-6-[(4-chlorophenyl)thio]-4-(2-thienyl)pyridine-3,5-dicarbonitrile], for which the CC50 in data set [1] and in data set [2] was above 100 µM in each case.
Take “S-Nitroso-N-acetyl penicillamine [Compound C38477]”: the CC50 in data set [4] is 58 ± 1.22 µM; in data set [5], 84 ± 2.96 µM.
